Source: patent publication US8399478B2 (Vertex Pharmaceuticals Incorporated, priority 2006, dated 2013)

biological target: T1, Plk1 (Homo sapiens, UniProt P53350); assay: Plk1 inhibition assay (radioactive-phosphate incorporation); type: biochemical; settings: Ki(app) from initial rate data
T1 construct: in the presence of 15 nM Plk1 (A20-K338)
Procedure: The compounds of the present invention are evaluated as inhibitors of human PLK kinase using the following assays.
(§1) Compounds were screened for their ability to inhibit Plk1 using a radioactive-phosphate incorporation assay. Assays were carried out in a mixture of 25 mM HEPES (pH 7.5), 10 mM MgCl2, and 1 mM DTT. […] An assay stock buffer solution was prepared containing all of the reagents listed above, with the exception of ATP and the test compound of interest. […] The plate was pre-incubated for 10 minutes at 25° C. and the reaction initiated by addition of 8 μL [γ-33 P]ATP (final concentration 50 μM).
(§2) The reaction was stopped after 60 minutes by the addition of 100 μL 0.14M phosphoric acid. A multiscreen phosphocellulose filter 96-well plate (Millipore, Cat no. MAPHN0B50) was pretreated with 100 μL 0.2M phosphoric acid prior to the addition of 125 μL of the stopped assay mixture. The plate was washed with 4×200 μL 0.2M phosphoric acid.
After removing mean background values for all of the data points, Ki(app) data were calculated from non-linear regression analysis of the initial rate data using the Prism software package (GraphPad Prism version 3.0cx for Macintosh, GraphPad Software, San Diego, Calif., USA).
as §1, with “MgCl2, […],” for “MgCl2,”, “and 2” for “and 1”, “μL [γ-33P]ATP” for “μL [γ-33 P]ATP”, “concentration 100” for “concentration 50”
as §2, with “90” for “60”

T1 sequence (P53350 20-338): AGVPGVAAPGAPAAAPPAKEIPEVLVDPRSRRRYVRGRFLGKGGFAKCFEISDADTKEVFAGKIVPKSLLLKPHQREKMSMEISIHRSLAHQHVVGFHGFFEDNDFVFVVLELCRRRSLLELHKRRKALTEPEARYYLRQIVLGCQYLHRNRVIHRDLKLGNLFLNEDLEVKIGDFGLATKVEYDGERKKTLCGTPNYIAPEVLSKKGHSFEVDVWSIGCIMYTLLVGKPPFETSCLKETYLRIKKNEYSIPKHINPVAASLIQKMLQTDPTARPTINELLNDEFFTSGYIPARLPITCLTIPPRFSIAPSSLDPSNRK

`CC(Oc1cc(-c2cnn3ccccc23)sc1C(N)=O)c1ccccc1Cl` (stereo not shown) [Compound I-2, 3-[1-(2-Chloro-phenyl)-ethoxy]-5-pyrazolo[1,5-a]pyridin-3-yl-thiophene-2-carboxamide] and `CC(Oc1cc(-c2cnc3cccnn23)sc1C(N)=O)c1ccccc1Cl` (stereo not shown) [Compound I-12, 3-(1-(2-chlorophenyl)ethoxy)-5-(imidazo[1,2-b]pyridazin-3-yl)thiophene-2-carboxamide] cannot be ordered by Ki: less than 0.1 µM for the first, less than 0.1 µM for the second.

`CCOC(=O)Nc1ccn2c(-c3cc(OC(C)(C)c4ccccc4Cl)c(C(N)=O)s3)cnc2c1` [Compound I-25, Ethyl 3-(5-carbamoyl-4-(2-(2-chlorophenyl)propan-2-yloxy)thiophen-2-yl)imidazo[1,2-a]pyridin-7-ylcarbamate] and `CCOC(=O)Nc1ccn2c(-c3cc(O[C@@H](C)c4ccccc4Cl)c(C(N)=O)s3)cnc2c1` [Compound I-20, (S)-ethyl 3-(5-carbamoyl-4-(1-(2-chlorophenyl)ethoxy)thiophen-2-yl)imidazo[1,2-a]pyridin-7-ylcarbamate] cannot be ordered by Ki: less than 0.1 µM for the first, less than 0.1 µM for the second.

First: CC(Oc1cc(-c2cnc3[nH]ccc3c2)sc1C(N)=O)c1ccccc1Cl (stereo not shown) [Compound I-5, 3-[1-(2-Chloro-phenyl)-ethoxy]-5-(1H-pyrrolo[2,3-b]pyridin-5-yl)-thiophene-2-carboxamide]
Second: C=Cc1cnc2[nH]cc(-c3cc(OC(C)c4ccccc4Cl)c(C(N)=O)s3)c2c1 (stereo not shown) [Compound I-6, 3-(1-(2-chlorophenyl)ethoxy)-5-(5-vinyl-1H-pyrrolo[2,3-b]pyridin-3-yl)thiophene-2-carboxamide]
The Ki of the first is higher: 0.1 to 1 µM for the first, less than 0.1 µM for the second.

`CC[C@H](Oc1cc(-c2cnc3cc(NC(=O)OC)ccn23)sc1C(N)=O)c1ccccc1Cl` [Compound I-21, (S)-methyl 3-(5-carbamoyl-4-(1-(2-chlorophenyl)propoxy)thiophen-2-yl)imidazo[1,2-a]pyridin-7-ylcarbamate] and `CCOC(=O)Nc1ccn2c(-c3cc(O[C@@H](CC)c4ccccc4Cl)c(C(N)=O)s3)cnc2c1` [Compound I-22, (S)-ethyl 3-(5-carbamoyl-4-(1-(2-chlorophenyl)propoxy)thiophen-2-yl)imidazo[1,2-a]pyridin-7-ylcarbamate] cannot be ordered by Ki: less than 0.1 µM for the first, less than 0.1 µM for the second.

`CC(Oc1cc(-c2cnc3cc(C(F)(F)F)ccn23)sc1C(N)=O)c1ccccc1Cl` (stereo not shown) [Compound I-13, 3-(1-(2-chlorophenyl)ethoxy)-5-(7-(trifluoromethyl)imidazo[1,2-a]pyridin-3-yl)thiophene-2-carboxamide] and `CC(Oc1cc(-c2cnc3ccc(C(F)(F)F)cn23)sc1C(N)=O)c1ccccc1Cl` (stereo not shown) [Compound I-10, 3-(1-(2-chlorophenyl)ethoxy)-5-(6-(trifluoromethyl)imidazo[1,2-a]pyridin-3-yl)thiophene-2-carboxamide] cannot be ordered by Ki: less than 0.1 µM for the first, less than 0.1 µM for the second.

Going from `CC(Oc1cc(-c2nnc3ccc(N)nn23)sc1C(N)=O)c1ccccc1Cl` (stereo not shown) [Compound I-4] to `CC(Oc1cc(-c2cnc3cc(N)ccn23)sc1C(N)=O)c1ccccc1Cl` (stereo not shown) [Compound I-15, 5-(7-aminoimidazo[1,2-a]pyridin-3-yl)-3-(1-(2-chlorophenyl)ethoxy)thiophene-2-carboxamide], the Ki falls from greater than 1 µM to less than 0.1 µM. The second binds more tightly here.

Going from `CNC(=O)c1sc(-c2cnc3ccccn23)cc1OC(C)c1ccccc1Cl` (stereo not shown) [Compound I-16, 3-(1-(2-chlorophenyl)ethoxy)-5-(imidazo[1,2-a]pyridin-3-yl)-N-methylthiophene-2-carboxamide] to `CNC(=O)c1ccn2c(-c3cc(OC(C)c4ccccc4Cl)c(C(N)=O)s3)cnc2c1` (stereo not shown) [Compound I-11, 3-(5-carbamoyl-4-(1-(2-chlorophenyl)ethoxy)thiophen-2-yl)-N-methylimidazo[1,2-a]pyridine-7-carboxamide], the Ki falls from greater than 1 µM to less than 0.1 µM.

`COc1cnc2[nH]cc(-c3cc(OC(C)c4ccccc4Cl)c(C(N)=O)s3)c2c1` (stereo not shown) [Compound I-3, 3-[1-(2-Chloro-phenyl)-ethoxy]-5-(5-methoxy-1H-pyrrolo[2,3-b]pyridin-3-yl)-thiophene-2-carboxyamide] and `CC(Oc1cc(-c2cnc3ccc(F)cn23)sc1C(N)=O)c1ccccc1Cl` (stereo not shown) [Compound I-8, 3-(1-(2-chlorophenyl)ethoxy)-5-(6-fluoroimidazo[1,2-a]pyridin-3-yl)thiophene-2-carboxamide] cannot be ordered by Ki: less than 0.1 µM for the first, less than 0.1 µM for the second.

`COC(=O)Nc1ccn2c(-c3cc(O[C@@H](C)c4ccccc4Cl)c(C(N)=O)s3)cnc2c1` [Compound I-19, (S)-methyl 3-(5-carbamoyl-4-(1-(2-chlorophenyl)ethoxy)thiophen-2-yl)imidazo[1,2-a]pyridin-7-ylcarbamate] and `CCOC(=O)Nc1ccn2c(-c3cc(OC(C)c4ccccc4Cl)c(C(N)=O)s3)cnc2c1` (stereo not shown) [Compound I-14, Ethyl 3-(5-carbamoyl-4-(1-(2-chlorophenyl)ethoxy)thiophen-2-yl)imidazo[1,2-a]pyridin-7-ylcarbamate] cannot be ordered by Ki: less than 0.1 µM for the first, less than 0.1 µM for the second.

`CNC(=O)c1ccc2ncc(-c3cc(OC(C)c4ccccc4Cl)c(C(N)=O)s3)n2c1` (stereo not shown) [Compound I-7, 3-(5-carbamoyl-4-(1-(2-chlorophenyl)ethoxy)thiophen-2-yl)-N-methylimidazo[1,2-a]pyridine-6-carboxamide] and `COC(=O)N(C)c1ccn2c(-c3cc(OC(C)c4ccccc4Cl)c(C(N)=O)s3)cnc2c1` (stereo not shown) [Compound I-18, Methyl 3-(5-carbamoyl-4-(1-(2-chlorophenyl)ethoxy)thiophen-2-yl)imidazo[1,2-a]pyridin-7-yl(methyl)carbamate] cannot be ordered by Ki: less than 0.1 µM for the first, less than 0.1 µM for the second.

`CCOC(=O)N(C)c1ccn2c(-c3cc(OC(C)c4ccccc4Cl)c(C(N)=O)s3)cnc2c1` (stereo not shown) [Compound I-17, Ethyl 3-(5-carbamoyl-4-(1-(2-chlorophenyl)ethoxy)thiophen-2-yl)imidazo[1,2-a]pyridin-7-yl(methyl)carbamate] and `CC(Oc1cc(-c2cnc3cnccn23)sc1C(N)=O)c1ccccc1Cl` (stereo not shown) [Compound I-9] cannot be ordered by Ki: less than 0.1 µM for the first, less than 0.1 µM for the second.
